Test results reported in patent US20230399312A1, “SUBSTITUTED PYRIMIDINES AND METHODS OF USE” (THERAVANCE BIOPHARMA R&D IP, LLC, priority 2020, published 2023).

Key:
[1] = test system: TGF-β-stimulated SMAD3 phosphorylation in BEAS-2B cells; test: Cellular ALK5 potency assay, inhibition of TGF-β stimulated pSMAD3 formation in BEAS-2B cells; format: cell-based; conditions: Homo sapiens, pSMAD3, TGF-β 10 ng/mL, read-out: BEAS2B pIC50 (converted)
Method in brief: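 Human lung epithelial BEAS-2B cells were preincubated 1 h at 37 °C with compound in HBSS/HEPES/1% BSA, then stimulated 30 min with 10 ng/mL TGF-β. pSMAD3 in lysates was quantified by AlphaLISA relative to untreated stimulated cells; reported as pIC50.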

[2] = biological target: T1, recombinant human ALK5 (TGF-βR1) protein (Homo sapiens, UniProt P36897); test: Biochemical ALK5 (TGF-βR1) assay to measure pKi (LANCE Ultra ULight kinase assay); conditions: apparent pKi, converted from pIC50 by Cheng-Prusoff
T1 construct: purchased Life Technologies PR9075A
T1 sequence (P36897 34-503): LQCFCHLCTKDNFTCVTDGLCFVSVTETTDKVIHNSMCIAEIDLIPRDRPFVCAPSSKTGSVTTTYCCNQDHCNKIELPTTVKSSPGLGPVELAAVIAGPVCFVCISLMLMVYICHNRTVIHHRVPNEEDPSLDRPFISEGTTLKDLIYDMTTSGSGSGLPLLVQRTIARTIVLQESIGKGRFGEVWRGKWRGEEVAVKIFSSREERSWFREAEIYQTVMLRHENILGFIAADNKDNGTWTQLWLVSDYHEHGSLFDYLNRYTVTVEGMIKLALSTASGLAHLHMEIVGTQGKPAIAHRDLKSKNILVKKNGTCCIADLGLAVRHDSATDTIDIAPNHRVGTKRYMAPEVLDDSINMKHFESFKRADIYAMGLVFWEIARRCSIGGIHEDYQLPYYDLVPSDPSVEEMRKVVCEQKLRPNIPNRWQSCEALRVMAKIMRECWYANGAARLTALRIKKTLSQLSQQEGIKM
Method in brief: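 Enzyme preincubated with compound for 60 min at room temperature, then reacted with ATP (125 μM as 5× stock) for 60 min at 37 °C. Stopped with EDTA plus Eu-anti-phospho-Topoisomerase 2-alpha (Thr1342) antibody and read by TR-FRET at 665 nm. pIC50 from a 4-parameter fit, converted to pKi by Cheng-Prusoff.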

SMILES | Ki [2] [nM] | IC50 [1] [nM]
Fc1ccccc1-c1nccc(Nc2ccnc(Nc3ccc(N4CCOCC4)cc3)n2)n1 [Compound 399, N4-[2-(2-fluorophenyl)pyrimidin-4-yl]-N2-(4-morpholinophenyl)pyrimidine-2,4-diamine] | 3.98 to 31.6 | 25.1 to 158
Cc1cccc(-c2nccc(Nc3ccnc(Nc4ccc(CN5CCC[C@@H](C(=O)OCC6CNC6)C5)cc4)n3)n2)n1 [Compound 400, azetidin-3-ylmethyl (R)-1-(4-((4-((2-(6-methylpyridin-2-yl)pyrimidin-4-yl)amino)pyrimidin-2-yl)amino)benzyl)piperidine-3-carboxylate] | 0.0398 to 0.316 | 25.1 to 158
COCCc1ccc(Nc2nccc(Nc3ccnc(-c4cccc(C)n4)n3)n2)cc1 [Compound 401, N2-[4-(2-methoxyethyl)phenyl]-N4-[2-(6-methyl-2-pyridyl)pyrimidin-4-yl]pyrimidine-2,4-diamine] | 0.398 to 3.16 | 25.1 to 158
Cc1cccc(-c2nccc(Nc3ccnc(Nc4ccc(N5CCN[C@@H](CO)C5)cc4)n3)n2)n1 [Compound 403, (R)-(4-(4-((4-((2-(6-methylpyridin-2-yl)pyrimidin-4-yl)amino)pyrimidin-2-yl)amino)phenyl)piperazin-2-yl)methanol] | 0.0398 to 0.316 | 25.1 to 158
Cc1cccc(-c2nccc(Nc3ccnc(Nc4ccc(CN5CCC(O)CC5)cc4)n3)n2)n1 [Compound 405, 1-[[4-[[4-[[2-(6-methyl-2-pyridyl)pyrimidin-4-yl]amino]pyrimidin-2-yl]amino]phenyl]methyl] piperidin-4-ol] | ≤ 0.0316 | 25.1 to 158
Fc1ccc(Cl)cc1-c1nccc(Nc2ccnc(Nc3ccc(NCCN4CCOCC4)cc3)n2)n1 [Compound 408, N4-[2-(5-chloro-2-fluoro-phenyl)pyrimidin-4-yl]-N2-[4-(2-morpholinoethylamino)phenyl] pyrimidine-2,4-diamine] | 0.398 to 3.16 | 25.1 to 158
Cc1cccc(-c2nccc(Nc3ccnc(Nc4ccc(N5CCOCC5)cc4O)n3)n2)n1 [Compound 410, 2-[[4-[[2-(6-methyl-2-pyridyl)pyrimidin-4-yl]amino]pyrimidin-2-yl]amino]-5-morpholino-phenol] | 3.98 to 31.6 | 25.1 to 158
COC(=O)CC1CN(Cc2cccc(Nc3nccc(Nc4ccnc(-c5cccc(C)n5)n4)n3)c2)CCN1 (stereo not drawn) [Compound 411, methyl 2-[4-[[3-[[4-[[2-(6-methyl-2-pyridyl)pyrimidin-4-yl]amino]pyrimidin-2-yl]amino]phenyl]methyl]piperazin-2-yl]acetate] | 0.0398 to 0.316 | 25.1 to 158
Cc1cccc(-c2nccc(Nc3ccnc(Nc4ccc(CN5CCC(C(=O)O[C@@H]6CCN(C)C6)CC5)cc4)n3)n2)n1 [Compound 414, (R)-1-methylpyrrolidin-3-yl 1-(4-((4-((2-(6-methylpyridin-2-yl)pyrimidin-4-yl)amino)pyrimidin-2-yl)amino)benzyl)piperidine-4-carboxylate] | 0.0398 to 0.316 | 25.1 to 158
CN(C)C1CCN(c2ccc(Nc3nccc(Nc4ccnc(-c5cc(Cl)ccc5F)n4)n3)cc2)CC1 [Compound 415, N4-[2-(5-chloro-2-fluoro-phenyl)pyrimidin-4-yl]-N2-[4-[4-(dimethylamino)-1-piperidyl]phenyl]pyrimidine-2,4-diamine] | 0.0398 to 0.316 | 25.1 to 158
Cc1cccc(-c2nccc(Nc3ccnc(Nc4ccc(N(C)C(=O)C5CCNCC5)cc4)n3)n2)n1 [Compound 416, N-methyl-N-[4-[[4-[[2-(6-methyl-2-pyridyl)pyrimidin-4-yl]amino]pyrimidin-2-yl]amino]phenyl]piperidine-4-carboxamide] | 0.0398 to 0.316 | 200 to 1260
Cc1cccc(-c2nccc(Nc3ccnc(Nc4cc(NC(=O)C5CCNCC5)c5c(c4)OCCO5)n3)n2)n1 [Compound 419, N-[7-[[4-[[2-(6-methyl-2-pyridyl)pyrimidin-4-yl]amino]pyrimidin-2-yl]amino]-2,3-dihydro-1,4-benzodioxin-5-yl]piperidine-4-carboxamide] | 0.0398 to 0.316 | 25.1 to 158
Cc1cccc(-c2nccc(Nc3ccnc(Nc4ccc(N5CCN[C@@H](C(=O)O)C5)cc4)n3)n2)n1 [Compound 422, (2R)-4-[4-[[4-[[2-(6-methyl-2-pyridyl)pyrimidin-4-yl]amino]pyrimidin-2-yl]amino]phenyl]piperazine-2-carboxylic acid] | 0.0398 to 0.316 | 200 to 1260
Cc1cccc(-c2nccc(Nc3ccnc(Nc4cccc(CN5C6CCC5CNC6)c4)n3)n2)n1 [Compound 424, N2-[3-(3,8-diazabicyclo[3.2.1]octan-8-ylmethyl)phenyl]-N4-[2-(6-methyl-2-pyridyl)pyrimidin-4-yl]pyrimidine-2,4-diamine] | 0.0398 to 0.316 | 25.1 to 158
Cc1cccc(-c2nccc(Nc3ccnc(Nc4ccc(-c5cnn(C(C)C)c5)cc4)n3)n2)n1 [Compound 425, N2-[4-(1-isopropylpyrazol-4-yl)phenyl]-N4-[2-(6-methyl-2-pyridyl)pyrimidin-4-yl]pyrimidine-2,4-diamine] | 0.398 to 3.16 | 25.1 to 158

More lines, main results first:

Ki [2] [nM] | SMILES | IC50 [1] [nM]
0.398 to 3.16 | Cc1cccc(-c2nccc(Nc3ccnc(Nc4ccc(N5CCNCC5CC(=O)OCC5CNC5)cc4)n3)n2)n1 (stereo not drawn) [Compound 402, azetidin-3-ylmethyl 2-[1-[4-[[4-[[2-(6-methyl-2-pyridyl)pyrimidin-4-yl]amino]pyrimidin-2-yl]amino]phenyl]piperazin-2-yl]acetate] | 200 to 1260
≤ 0.0316 | Cc1cccc(-c2nccc(Nc3ccnc(Nc4nc(C(=O)N[C@@H]5CCNC5)cs4)n3)n2)n1 [Compound 404, 2-[[4-[[2-(6-methyl-2-pyridyl)pyrimidin-4-yl]amino]pyrimidin-2-yl]amino]-N-[(3R)-pyrrolidin-3-yl]thiazole-4-carboxamide] | 25.1 to 158
0.398 to 3.16 | Cc1cccc(-c2nccc(Nc3ccnc(Nc4ccc(C(=O)O)cc4)n3)n2)n1 [Compound 406, 4-[[4-[[2-(6-methyl-2-pyridyl)pyrimidin-4-yl]amino]pyrimidin-2-yl]amino]benzoic acid] | 200 to 1260
0.0398 to 0.316 | Cc1cccc(-c2nccc(Nc3ccnc(Nc4ccc(S(=O)(=O)N5CCOCC5)cc4)n3)n2)n1 [Compound 407, N4-[2-(6-methyl-2-pyridyl)pyrimidin-4-yl]-N2-(4-morpholinosulfonylphenyl) pyrimidine-2,4-diamine] | 25.1 to 158
0.0398 to 0.316 | Cc1cccc(-c2nccc(Nc3ccnc(Nc4ccc(CN5[C@@H](C)CNC[C@@H]5C)cc4)n3)n2)n1 [Compound 409, N2-[4-[[(2S,6S)-2,6-dimethylpiperazin-1-yl]methyl]phenyl]-N4-[2-(6-methyl-2-pyridyl)pyrimidin-4-yl]pyrimidine-2,4-diamine] | 25.1 to 158
0.0398 to 0.316 | Fc1ccc(Cl)cc1-c1nccc(Nc2ccnc(Nc3ccc(N4CCC(N5CCCC5)CC4)cc3)n2)n1 [Compound 412, N4-[2-(5-chloro-2-fluoro-phenyl)pyrimidin-4-yl]-N2-[4-(4-pyrrolidin-1-yl-1-piperidyl)phenyl]pyrimidine-2,4-diamine] | 25.1 to 158
0.398 to 3.16 | Cc1cccc(-c2nccc(Nc3ccnc(Nc4ccc(NS(=O)(=O)C5CCNC5)cc4)n3)n2)n1 (stereo not drawn) [Compound 413, N-[4-[[4-[[2-(6-methyl-2-pyridyl)pyrimidin-4-yl]amino]pyrimidin-2-yl]amino]phenyl]pyrrolidine-3-sulfonamide] | 200 to 1260
0.0398 to 0.316 | Cc1cccc(-c2nccc(Nc3ccnc(Nc4ccc(CN5CCS(=O)(=O)CC5)cc4)n3)n2)n1 [Compound 417, N2-[4-[(1,1-dioxo-1,4-thiazinan-4-yl)methyl]phenyl]-N4-[2-(6-methyl-2-pyridyl)pyrimidin-4-yl]pyrimidine-2,4-diamine] | 25.1 to 158
0.0398 to 0.316 | Cc1cccc(-c2nccc(Nc3ccnc(Nc4ccc(N5CCNCC5)cc4)n3)n2)n1 [Compound 418, N4-(2-(6-methylpyridin-2-yl)pyrimidin-4-yl)-N2-(4-(piperazin-1-yl)phenyl)pyrimidine-2,4-diamine] | 25.1 to 158
0.0398 to 0.316 | Cc1cccc(-c2nccc(Nc3ccnc(Nc4cccc(S(=O)(=O)NCCN(C)C)c4)n3)n2)n1 [Compound 420, N-[2-(dimethylamino)ethyl]-3-[[4-[[2-(6-methyl-2-pyridyl)pyrimidin-4-yl]amino]pyrimidin-2-yl]amino]benzenesulfonamide] | 25.1 to 158
0.0398 to 0.316 | Cc1cccc(-c2nccc(Nc3ccnc(Nc4ccc(C)c(N)c4)n3)n2)n1 [Compound 421, N2-(3-amino-4-methyl-phenyl)-N4-[2-(6-methyl-2-pyridyl)pyrimidin-4-yl]pyrimidine-2,4-diamine] | ≤ 20
0.398 to 3.16 | Cc1cccc(-c2nccc(Nc3ccnc(Nc4cccc(C(=O)O)c4)n3)n2)n1 [Compound 423, 3-[[4-[[2-(6-methyl-2-pyridyl)pyrimidin-4-yl]amino]pyrimidin-2-yl]amino]benzoic acid] | 1580 to 10000
